“And” between values parts separate entries of the source, which are not always exact repeats. Identical values can stand only once. Toxic doses and inconclusive results are not listed.
Test system: L1210 leukemia ip in BDF1 mice, survival T/C
Test: NCI In Vivo Anticancer Drug Screen. Data for tumor model L1210 Leukemia (intraperitoneal) in B6D2F1 (BDF1) mice
Conditions: endpoint: mean survival time, higher = longer survival
Method in brief: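 Antitumor effect is assessed in tumor-bearing animals. Survival in the compound arm is compared with a vehicle-dosed control arm and expressed as their quotient.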

[1] = dose: 20.0 mg/kg/injection, schedule: Q01DX001 (ip), vehicle: saline
[2] = dose: 100.0 mg/kg/injection, schedule: Q01DX001 (ip), vehicle: saline
[3] = dose: 200.0 mg/kg/injection, schedule: Q01DX001 (ip), vehicle: saline
[4] = dose: 100.0 mg/kg/injection, schedule: Q04DX003 (ip), vehicle: saline with Tween-80
[5] = dose: 200.0 mg/kg/injection, schedule: Q04DX003 (ip), vehicle: saline with Tween-80
[6] = dose: 400.0 mg/kg/injection, schedule: Q04DX003 (ip), vehicle: saline with Tween-80
[7] = dose: 100.0 mg/kg/injection, schedule: Q01DX009 (ip), vehicle: saline with Tween-80
[8] = dose: 200.0 mg/kg/injection, schedule: Q01DX009 (ip), vehicle: saline with Tween-80
[9] = dose: 400.0 mg/kg/injection, schedule: Q01DX009 (ip), vehicle: saline with Tween-80

CC[n+]1ccccc1-c1ccc(NC(=O)c2ccc(C(=O)Nc3ccc(-c4ccccn4)cc3)cc2)cc1
T/C (dose: 0.75 mg/kg/injection, schedule: Q01DX Z (ip), vehicle: saline): 120 % of control
T/C (dose: 2.6 mg/kg/injection, schedule: Q01DX Z (ip), vehicle: saline): 194 % of control and 213 % of control
T/C (dose: 2.9 mg/kg/injection, schedule: Q01DX001 (ip), vehicle: saline): 116 % of control
T/C (dose: 4.0 mg/kg/injection, schedule: Q01DX Z (ip), vehicle: saline): 176 % of control
T/C (dose: 4.4 mg/kg/injection, schedule: Q01DX001 (ip), vehicle: saline): 124 % of control
T/C (dose: 6.0 mg/kg/injection, schedule: Q01DX Z (ip), vehicle: saline): 170 % of control
T/C (dose: 7.0 mg/kg/injection, schedule: Q01DX Z (oral), vehicle: saline): 103 % of control
T/C (dose: 14.0 mg/kg/injection, schedule: Q01DX Z (ip), vehicle: saline): 100 % of control
T/C (dose: 15.0 mg/kg/injection, schedule: Q01DX Z (oral), vehicle: saline): 100 % of control
T/C [1]: 164 % of control
T/C (dose: 22.0 mg/kg/injection, schedule: Q01DX Z (ip), vehicle: saline): 102 % of control
T/C (dose: 30.0 mg/kg/injection, schedule: Q01DX Z (oral), vehicle: saline): 102 % of control
T/C (dose: 35.0 mg/kg/injection, schedule: Q01DX Z (ip), vehicle: saline): 88 % of control
T/C (dose: 40.0 mg/kg/injection, schedule: Q01DX001 (ip), vehicle: saline): 153 % of control and 191 % of control

CC(=O)CC(=O)N(N=O)c1ccccc1C
T/C [2]: 104 % of control
T/C [3]: 95 % of control

COc1ccc(OC)c(NC(=O)Nc2ccc(O)cc2)c1
T/C [4]: 98 % of control
T/C [5]: 98 % of control
T/C [6]: 93 % of control

CC(=O)CC(=O)C(F)(F)F.CC(=O)CC(=O)C(F)(F)F.CC(=O)CC(=O)C(F)(F)F.[Rh]
T/C [7]: 97 % of control
T/C [4]: 97 % of control
T/C [8]: 100 % of control
T/C [5]: 90 % of control
T/C [9]: 96 % of control
T/C [6]: 92 % of control

CN(Cc1cccc(Cl)c1)C(=O)Nc1ccccc1Cl
T/C (dose: 100.0 mg/kg/injection, schedule: Q04DX002 (ip), vehicle: Klucel (hydroxypropylcellulose) (HPC)): 104 % of control
T/C (dose: 200.0 mg/kg/injection, schedule: Q04DX002 (ip), vehicle: Klucel (hydroxypropylcellulose) (HPC)): 104 % of control
T/C (dose: 400.0 mg/kg/injection, schedule: Q04DX002 (ip), vehicle: Klucel (hydroxypropylcellulose) (HPC)): 104 % of control

CCO/C(C)=C(/C(C)=O)C(=O)NC1CCCCC1
T/C [7]: 100 % of control
T/C [4]: 101 % of control
T/C [8]: 100 % of control
T/C [5]: 95 % of control
T/C [9]: 102 % of control
T/C [6]: 98 % of control

O=c1[nH]cccc1CCc1ccccc1
T/C [2]: 103 % of control
T/C [3]: 105 % of control
T/C (dose: 400.0 mg/kg/injection, schedule: Q01DX001 (ip), vehicle: saline): 111 % of control

COc1ccc(NC(=O)Oc2cc(C)cc(C)c2)cc1
T/C (dose: 100.0 mg/kg/injection, schedule: Q01DX009 (ip), vehicle: Klucel (hydroxypropylcellulose) (HPC)): 106 % of control
T/C (dose: 100.0 mg/kg/injection, schedule: Q04DX003 (ip), vehicle: Klucel (hydroxypropylcellulose) (HPC)): 100 % of control
T/C (dose: 200.0 mg/kg/injection, schedule: Q01DX009 (ip), vehicle: Klucel (hydroxypropylcellulose) (HPC)): 101 % of control
T/C (dose: 200.0 mg/kg/injection, schedule: Q04DX003 (ip), vehicle: Klucel (hydroxypropylcellulose) (HPC)): 97 % of control
T/C (dose: 400.0 mg/kg/injection, schedule: Q01DX009 (ip), vehicle: Klucel (hydroxypropylcellulose) (HPC)): 100 % of control
T/C (dose: 400.0 mg/kg/injection, schedule: Q04DX003 (ip), vehicle: Klucel (hydroxypropylcellulose) (HPC)): 92 % of control

CC1(C)OC2COC3(COC(C)(C)O3)C(O)C2O1 (configuration not stated)
T/C (dose: 100.0 mg/kg/injection, schedule: Q04DX002 (ip), vehicle: saline): 96 % of control
T/C (dose: 200.0 mg/kg/injection, schedule: Q04DX002 (ip), vehicle: saline): 100 % of control
T/C (dose: 400.0 mg/kg/injection, schedule: Q04DX002 (ip), vehicle: saline): 104 % of control

CCC(CC)C(O)C(C)C(C)O (configuration not stated)
T/C [4]: 97 % of control
T/C [5]: 113 % of control
T/C [6]: 97 % of control

CC(C)CC[NH-].CC(C)CC[NH-].[Cl][Pt+2][Cl]
T/C (dose: 50.0 mg/kg/injection, schedule: Q04DX003 (ip), vehicle: saline): 100 % of control and 105 % of control
T/C (dose: 100.0 mg/kg/injection, schedule: Q04DX003 (ip), vehicle: saline): 92 % of control and 105 % of control
T/C (dose: 200.0 mg/kg/injection, schedule: Q04DX003 (ip), vehicle: saline): 103 % of control and 117 % of control
T/C (dose: 400.0 mg/kg/injection, schedule: Q04DX003 (ip), vehicle: saline): 97 % of control and 88 % of control

N#Cc1ccc(OCCCOc2ccccc2)cc1
T/C (dose: 100.0 mg/kg/injection, schedule: Q01DX001 (ip), vehicle: saline with Tween-80): 100 % of control
T/C (dose: 200.0 mg/kg/injection, schedule: Q01DX001 (ip), vehicle: saline with Tween-80): 102 % of control
T/C (dose: 400.0 mg/kg/injection, schedule: Q01DX001 (ip), vehicle: saline with Tween-80): 93 % of control

O=NN(Cc1cnc2[nH]c(=O)[nH]c(=O)c2n1)c1ccc(C(=O)NC(CCC(=O)O)C(=O)O)cc1 (configuration not stated)
T/C (dose: 3.13 mg/kg/injection, schedule: Q01DX009 (ip), vehicle: water): 100 % of control
T/C (dose: 6.25 mg/kg/injection, schedule: Q01DX009 (ip), vehicle: water): 102 % of control
T/C (dose: 12.5 mg/kg/injection, schedule: Q01DX009 (ip), vehicle: water): 88 % of control
T/C (dose: 25.0 mg/kg/injection, schedule: Q01DX009 (ip), vehicle: water): 98 % of control
T/C (dose: 50.0 mg/kg/injection, schedule: Q01DX009 (ip), vehicle: water): 93 % of control

C1CCC(CCNCCC2CCCCC2)CC1
T/C (dose: 5.0 mg/kg/injection, schedule: Q01DX001 (ip), vehicle: saline): 102 % of control
T/C (dose: 10.0 mg/kg/injection, schedule: Q01DX001 (ip), vehicle: saline): 102 % of control
T/C [1]: 104 % of control

NC1(C(=O)O)CC(O)(c2ccccc2)C(O)(c2ccccc2)C1 (configuration not stated)
T/C [2]: 88 % of control
T/C [3]: 93 % of control

Brc1ccc(N2N=NC3CN(c4ccccc4)CC32)cc1 (configuration not stated)
T/C [4]: 88 % of control
T/C [5]: 91 % of control
T/C [6]: 93 % of control

COc1ccccc1NC(=O)O/N=C/c1ccccn1
T/C (dose: 100.0 mg/kg/injection, schedule: Q04DX003 (ip), vehicle: other): 99 % of control
T/C (dose: 200.0 mg/kg/injection, schedule: Q04DX003 (ip), vehicle: other): 90 % of control
T/C (dose: 400.0 mg/kg/injection, schedule: Q04DX003 (ip), vehicle: other): 103 % of control

CCN1/C(=C/c2ccc3ccccc3[n+]2CC)C=Cc2ccccc21
T/C (dose: 2.0 mg/kg/injection, schedule: Q01DX001 (ip), vehicle: other): 103 % of control
T/C (dose: 8.0 mg/kg/injection, schedule: Q01DX001 (ip), vehicle: other): 110 % of control
T/C (dose: 9.5 mg/kg/injection, schedule: Q01DX001 (ip), vehicle: other): 101 % of control

O=CN/N=C\c1cccc2ccccc12
T/C (dose: 75.0 mg/kg/injection, schedule: Q01DX001 (ip), vehicle: saline): 103 % of control
T/C (dose: 150.0 mg/kg/injection, schedule: Q01DX001 (ip), vehicle: saline): 98 % of control
T/C (dose: 300.0 mg/kg/injection, schedule: Q01DX001 (ip), vehicle: saline): 97 % of control

O=C(CCCN1CCC2(CC1)OC(=O)N(c1ccc(F)cc1)C2=O)c1cccs1
T/C (dose: 50.0 mg/kg/injection, schedule: Q01DX001 (ip), vehicle: Klucel (hydroxypropylcellulose) (HPC)): 94 % of control
T/C (dose: 100.0 mg/kg/injection, schedule: Q01DX001 (ip), vehicle: Klucel (hydroxypropylcellulose) (HPC)): 91 % of control
T/C (dose: 200.0 mg/kg/injection, schedule: Q01DX001 (ip), vehicle: Klucel (hydroxypropylcellulose) (HPC)): 88 % of control

CC(=O)N1CC(n2cnc3c(N)ncnc32)CC1CO (configuration not stated)
T/C (dose: 12.5 mg/kg/injection, schedule: Q04DX002 (ip), vehicle: saline with Tween-80): 102 % of control
T/C (dose: 25.0 mg/kg/injection, schedule: Q04DX002 (ip), vehicle: saline with Tween-80): 98 % of control
T/C (dose: 50.0 mg/kg/injection, schedule: Q04DX002 (ip), vehicle: saline with Tween-80): 94 % of control

Cc1ccc(N2CCN(c3ccc(C)cc3)CC2)cc1
T/C (dose: 100.0 mg/kg/injection, schedule: Q04DX002 (ip), vehicle: gum acacia): 109 % of control
T/C (dose: 200.0 mg/kg/injection, schedule: Q04DX002 (ip), vehicle: gum acacia): 95 % of control
T/C (dose: 400.0 mg/kg/injection, schedule: Q04DX002 (ip), vehicle: gum acacia): 103 % of control
